Test results from patent US5420145A, “Carboxylic acid derivative” (Shudo; Koichi, priority 1993, dated 1995).
Like-named read-outs stand apart in the source and are kept apart here.

Tested on: promyelocytic leukemia cell-line HL-60
Assay: Differentiation Inducing Activity on HL-60 (differentiation to granulocyte; morphological observation of nucleus and NBT reduction)
Format: cell-based
Settings: Homo sapiens
Description: The activities of the compounds of the above-described examples on differentiation were evaluated using promyelocytic leukemia cell-line HL-60 according to the method described in Japanese Patent Unexamined Publication No. 61-76440. The differentiation to granulocyte was evaluated by morphological observation of nucleus and measurement of ability to reduce nitroblue-tetrazolium (NBT). These are well known procedures providing adequate results in the evaluation of the cell differentiation-inducing activity of retinoids. Retinoic acid was used as the reference compound, and the concentrations which induced differentiation in the half of the cells were calculated.

[1] = HL-60 cells, differentiation to granulocyte, nucleus morphology and nitroblue-tetrazolium (NBT) reduction, read-out: ED50 (concentration which induced differentiation in the half of the cells)

Row | EC50 [1] | SMILES | EC50 (HL-60, read-out: ED50 (concentration which induced differentiation in the half of the cells))
1 | 0.22 nM | CC1(C)CCC(C)(C)c2cc(NC(=O)c3ccc(C(=O)O)cn3)ccc21 [Example 2, 6-(5,6,7,8-Tetrahydro-5,5,8,8-tetramethyl-2naphthalenylcarbamoyl) pyridine-3-carboxylic acid] | 
2 |  | CC1=C(/C=C/C(C)=C/C=C/C(C)=C/C(=O)O)C(C)(C)CCC1 [Retinoic Acid, Retinoic acid, reference compound] | 2.4 nM
3 | 0.41 nM | CC1(C)CCC(C)(C)c2cc(NC(=O)c3ccc(C(=O)O)cc3O)ccc21 [Example 3, 3-Hydroxy-4-(5,6,7,8-tetrahydro-5,5,8,8-tetramethyl-2-naphthalenylcarbamoyl)benzoic acid] | 
4 | 6.5 nM | CC1(C)CCC(C)(C)c2cc(C(=O)Nc3ccc(C(=O)O)cc3O)ccc21 [Example 4, 3-Hydroxy-4-(5,6,7,8-tetrahydro-5,5,8,8-tetramethyl-2-naphthalenylcarboxamide)benzoic acid] | 
5 | 25 nM | CC(C)c1ccc(NC(=O)c2ccc(C(=O)O)cn2)cc1C(C)C [Example 5, 6-(3,4-Di-isopropylphenylcarbamoyl)pyridine-3-carboxylic acid] | 
6 | 40 nM | CC1(C)CCC(C)(C)c2cc(NC(=O)c3ccc(C(=O)O)nc3)ccc21 [Example 1, 5-(5,6,7,8-Tetrahydro-5,5,8,8-tetramethyl-2-naphthalenyl-carbamoyl)pyridine-2-carboxylic acid] | 
